The test has as its system c-myc (DNA, G4) TGAGGGTGGGTAGGGTGGGTAA
The experiment in a line: fluorescence light-up, plate reader. The settings on record: 50 mM K+ (KCl); 50 mM Tris/HCl pH 7.5, room temperature; 1 µM strand, 0.5 µM ThT.

SMILES strings stand for the structures.

Take `Cc1ccc2c(c1)sc(-c1ccc(N(C)C)cc1)[n+]2C`: the fluorescence fold increase worked out at 14 fold.
